Experiments:
BRD4-BD1 = biological target: T1, BRD4-BD1 (Homo sapiens, UniProt O60885); conditions: relative to SF2523; cited from earlier work
T1 construct: tested against BRD4-BD1 and BRD4-BD2 using a peptide-displacement assay

BRD4-BD2 [1] = biological target: T2, BRD4-BD2 (Homo sapiens, UniProt O60885); design: tested against BRD4-BD1 and BRD4-BD2 using a peptide-displacement assay; conditions: relative to SF2523; cited from earlier work
BRD4-BD2 [2] = biological target: T2, BRD4-BD2; experiment: Protein Thermal Shift (PTS) assay on BRD4-BD2; assay type: binding; design: polyhistidine (N, cleaved yes); made in house; host or cells: E. coli (T7 express); conditions: 100 μM ligand, 20 μM BD protein; thermal destabilization
Experimental: The genes encoding human BRD2-BD1, BRD2-BD2, and BRD4-BD2 were codon-optimized for expression in E. coli. […] The sequence-confirmed plasmids were used to transform T7 express E coli. Large-scale cell cultures were grown in LB media containing […] carbenicillin and incubated with shaking at 37° C. until the OD600 nm reached 0.6. Then cultures were cooled to 16° C., and 1 mM isopropyl β-D-1-thiogalactopyranoside was added to induce the protein expression. After 20 hours of incubation, cells were harvested. The resulting cell pellet was resuspended in a lysis buffer containing 50 mM Tris pH 7.5, 200 mM NaCl, 0.5 mM imidazole, and 0.3 mM tris(2-carboxyethyl) phosphine (TECP). After the addition of DNase I and lysozyme, the cell suspension was incubated on ice for 30 minutes and lysed by sonication. The lysate was clarified by centrifugation at 12,000 rpm for 45 minutes. The resulting supernatant was applied to a 5 mL metal affinity cobalt column pre-equilibrated with lysis buffer. Then, 25 column volumes of lysis buffer were passed through the column to eliminate unbound E coli proteins. Recombinant protein was eluted isocratically with the elution buffer containing 50 mM Tris pH 7.5, 200 mM NaCl, 150 mM imidazole, and 0.3 mM TECP. The rhinovirus 3C protease was added to the eluted recombinant protein to cleave the N-terminal Histidine tag and the sample dialyzed against a buffer containing 50 mM Tris pH 7.5, 100 mM NaCl and 0.3 mM TECP. After 12 hours, the protein solution was passed through a 5 ml cobalt column, which was pre-equilibrated with dialysis buffer, and the recombinant protein lacking the His-tag was collected from the flowthrough.
Each reaction used 20 μM concentration of recombinant BD protein in a 50 mM Tris pH 7.5 buffer containing 100 mM NaCl, 0.3 mM tris(2-carboxyethyl) phosphine HCl, and 1% dimethyl sulfoxide. Protein Thermal Shift Dye (ThermoFisher) was also added at 1× concentration. Under these conditions, 3 protein melting curves with each respective BD and 100 μM final concentration of ligand were performed from 25 to 95° C. with a ramp rate of 0.5° C./minute. Evaluation of the derivative of the fluorescence signal employed the Applied Bioscience Protein Thermal Shift Software version 1.3 to determine the average melting temperature (Tm) for each sample and the standard deviation(s) of those Tm values.

BRD4-BD2 Tm decrease (BRD4-BD2 [2]) [°C] | SMILES | better binding affinity than SF2523 for BRD4-BD1 (BRD4-BD1) [fold] | better binding affinity than SF2523 for BRD4-BD2 (BRD4-BD2 [1]) [fold]
– | O=C(NCc1cccnc1)c1cc(-c2csc3c(=O)cc(N4CCOCC4)oc23)cc2c1OCCO2 [SRX3212] | 65 | 48
0.6 | O=c1cc(N2CCOCC2)oc2c(Br)cccc12 [MDP4, 8-bromo-2-morpholino-4H-chromen-4-one] | – | –
1.3 | O=c1c(N2CCOCC2)nc(Br)c2n1CCc1ccccc1-2 [MDP3, 1-bromo-3-morpholino-6,7-dihydro-4H-pyrazino [2,1-a]isoquinolin-4-one] | – | –

Reference: patent US20260069599A1, “INHIBITORS OF BROMODOMAIN-CONTAINING PROTEIN 4 AND PHOSPHOINOSITIDE 3-KINASE” (Board of Regents of the University of Nebraska, priority 2022, published 2026)
